Source: US10758549B2, “Compositions of obeticholic acid and methods of use” (Intercept Pharmaceuticals, Inc., priority 2015, dated 2020)
Values after ≈ are worked out from the molar mass of the structure shown. Like-named read-outs stand apart in the source and are kept apart here.

Legend:
[1] = Solubility of OCA in biologically relevant media at 37° C.; assay type: physicochemical; settings: for solubility: physiologically relevant dissolution media
Description: Solubility Studies of OCA in Biological Media.

[2] = Example 10: clinical pharmacology / pharmacokinetics of OCA; assay type: in vivo, human; settings: for Urinary excretion / dose excreted in feces: radiolabeled ([^14C]) obeticholic acid
Experimental: This example describes clinical pharmacology and dosing of obeticholic acid (OCA—including obeticholic acid compositions described herein). […] OCA can be supplied as an oral tablet containing obeticholic acid in a formulation as described herein.
Median Tmax for glyco-OCA and tauro-OCA is 10 hours.
Following an oral administration of 25 mg [^14C]-OCA, about 87% of the dose is excreted in feces through biliary secretion. Less than 3% of the dose is excreted in the urine with no detection of OCA.

[3] = normal hepatic function, Fixed; cited from earlier work
PBC patients = experiment: Example 7: 12-week placebo-controlled OCA monotherapy study (10 mg, 50 mg) in PBC; assay type: in vivo, human; settings: for ALP Change from Baseline to Day 85/ET, Mean / ALP Level at Day 85/ET, Mean / ALP Level at Day 85/ET, Median / Percent Change in ALP from Baseline to EOS, Mean (SD) / Percent Change in ALP from Baseline to EOS, Median / GGT level at Day 85/ET, mean (SD): ITT
Experimental: This example describes a study of two doses of OCA (10 mg and 50 mg) vs. placebo for a period of 12 weeks (85 days). The study was completed by 48 patients and PK data are available for 34 patients. All patients returned to the study site for 4 visits (Day 15, Day 29, Day 57, and Day 85) for evaluations of efficacy, safety, tolerability, and compliance with investigational product.
Key Exclusion Criteria • 1. The following drugs were contraindicated: ursodeoxycholic acid (UDCA), colchicine, methotrexate, azathioprine, or systemic corticosteroids • 2. Conjugated bilirubin>2×ULN; ALT or AST>5×ULN and serum creatinine>133 μmol/L (1.5 mg/dL) • 3. History or presence of hepatic decompensation • 4. History of presence of concomitant liver diseases such as Hepatitis B or C; HIV; primary sclerosing cholangitis, alcoholic liver disease, definite autoimmune liver disease or biopsy proven nonalcoholic steatohepatitis (NASH).
The percent change (%) in serum ALP from Baseline to End of Study (EOS) was monitored. The baseline value was the mean of the pretreatment screening and day 0 evaluations. The EOS value was Day 85/ET or the last observed ALP value on treatment.
Absolute changes in serum ALP levels were monitored from Baseline to Day 15, Day 29, Day 57, Day 85/ET and Follow-Up (Day 99). The percentage of patients was calculated who met the definition of PBC responder criteria applying the Paris I, Toronto I, Toronto II, Toronto III, Toronto IV, Mayo II, and Barcelona disease prognostic risk criteria at Day 85/ET. Each patient was tested for absolute and percent change in serum aspartate aminotransferase (AST), alanine aminotransferase (ALT), gamma-glutamyl transferase (GGT), and conjugated (direct) bilirubin values from Baseline to Day 15, Day 29, Day 57, Day 85/ET and Follow-Up (Day 99).

[4] = oral, listed as obeticholic acid

CC[C@H]1[C@@H](O)[C@@H]2[C@H](CC[C@]3(C)[C@@H]([C@H](C)CCC(=O)O)CC[C@@H]23)[C@@]2(C)CC[C@@H](O)C[C@@H]12 [OCA, 3α,7α-dihydroxy-6α-ethyl-5β-cholan-24-oic acid]
USP Solubility Rating ([1]; pH 1.2 (0.1N HCl)): Practically insoluble
Solubility (mg/mL) ([1]; pH 1.2 (0.1N HCl), 37° C.): <LOQ
USP Solubility Rating ([1]; pH 1.2 (FaSSGF)): Practically insoluble
Solubility (mg/mL) ([1]; pH 1.2 (FaSSGF), 37° C.): <LOQ
USP Solubility Rating ([1]; pH 4.5): Practically insoluble
Solubility (mg/mL) ([1]; pH 4.5, 37° C.): <LOQ
USP Solubility Rating ([1]; pH 5.0 (FeSSIF)): Freely soluble
increase in OCA solubility ([1]; pH 5.0 with taurocholate and lecithin (FeSSIF) vs. pH 5.1 acetate buffer alone): 35 fold
USP Solubility Rating ([1]; pH 6.5 (FaSSIF)): Freely soluble
USP Solubility Rating ([1]; pH 6.8): Freely soluble
USP Solubility Rating ([1]; pH 6.8 with surfactant): Freely soluble
solubility ([1]; aqueous buffer, pH 6.8 (proposed dissolution medium, sodium phosphate dibasic), 37° C.): 220 µg/mL (≈ 523 µM)
solubility ([1]; aqueous with cosolvent or surfactant or cyclodextrin, pH 6.8 with surfactant (polysorbate 80), 37° C.): 590 µg/mL (≈ 1400 µM)
solubility ([1]; pH 5.0 (FeSSIF), 37° C.): 820 µg/mL (≈ 1950 µM)
solubility ([1]; pH 6.5 (FaSSIF), 37° C.): 640 µg/mL (≈ 1520 µM)
effect of food on PK ([2]; 10 mg OCA): does not have a clinically relevant effect
increase in obeticholic acid exposure ([2]; 20 mg omeprazole once daily with obeticholic acid 10 mg once daily): less than 1.2 fold
systemic exposure versus dose ([2]; 5, 10, and 25 mg once daily for 14 days): increase dose proportionally
Vd ([2]; human, in vivo, read-out: volume of distribution): 613 L
Tmax ([2]; human, plasma, multiple oral doses of OCA 10 mg once daily, read-out: median time (Tmax) of peak plasma concentrations): ~1.5 h
half-life ([2]; human, plasma, oral, read-out: effective half-life (converted)): ~24 h
Tmax ([2]; human, plasma, oral, read-out: median time (tmax) of peak plasma concentrations): ~2 h
Urinary excretion ([2]; oral): Less than 3%
dose excreted in feces ([2]; oral): about 87%
Urinary excretion [2, 4]: less than 3%
dose excreted in feces [2, 4]: greater than 85%
t13: OCA transport rate from sinusoidal space to liver [3]: 1.62 h⁻¹
mean change in LDL-C at Day 85/ET (PBC patients; OCA 10 mg): +0.10 (0.58) mmol/L
ALP Change from Baseline to Day 85/ET, Mean (PBC patients; OCA 10 mg (n = 20)): −233.5 U/L
ALP Level at Day 85/ET, Mean (PBC patients; OCA 10 mg (n = 20)): 228.1 U/L
ALP Level at Day 85/ET, Median (PBC patients; OCA 10 mg (n = 20)): 196.5 U/L
Percent Change in ALP from Baseline to EOS, Mean (SD) (PBC patients; OCA 10 mg (n = 20)): −44.5 (24.4) %
Percent Change in ALP from Baseline to EOS, Median (PBC patients; OCA 10 mg (n = 20)): −53.9%
GGT level at Day 85/ET, mean (SD) (PBC patients; OCA 10 mg, baseline 653 (370) U/L): 184 (203) U/L
HDL-C at end of treatment (ET), mean (SD) (PBC patients; OCA 10 mg, baseline 1.73 (0.45) mmol/L): 1.57 (0.46) mmol/L
AST level at Day 85/ET, mean (SD) (PBC patients; OCA 10 mg, baseline 67 (33) U/L): 54 (40) U/L
ALT level at Day 85/ET, mean (SD) (PBC patients; OCA 10 mg, baseline 86 (44) U/L): 54 (41) U/L
mean change in LDL-C at Day 85/ET (PBC patients; OCA 50 mg): +0.23 (0.52) mmol/L
ALP Change from Baseline to Day 85/ET, Mean (PBC patients; OCA 50 mg (n = 16)): −161.3 U/L
ALP Level at Day 85/ET, Mean (PBC patients; OCA 50 mg (n = 16)): 269.8 U/L
ALP Level at Day 85/ET, Median (PBC patients; OCA 50 mg (n = 16)): 197.5 U/L
Percent Change in ALP from Baseline to EOS, Mean (SD) (PBC patients; OCA 50 mg (n = 16)): −37.6 (21.0) %
Percent Change in ALP from Baseline to EOS, Median (PBC patients; OCA 50 mg (n = 16)): −37.2%
GGT level at Day 85/ET, mean (SD) (PBC patients; OCA 50 mg, baseline 455 (418) U/L): 202 (300) U/L
HDL-C at end of treatment (ET), mean (SD) (PBC patients; OCA 50 mg, baseline 1.95 (0.55) mmol/L): 1.86 (0.56) mmol/L
AST level at Day 85/ET, mean (SD) (PBC patients; OCA 50 mg, baseline 66 (29) U/L): 56 (28) U/L
ALT level at Day 85/ET, mean (SD) (PBC patients; OCA 50 mg, baseline 71 (38) U/L): 49 (29) U/L
dropout rate (PBC patients; OCA 50 mg, early in treatment (<1 month)): 44%
ALP reduction, on average (PBC patients; each OCA dose (10 mg and 50 mg monotherapy), early stage PBC): approximately 40%
